Converted amounts (≈) assume the structure as drawn.
Legend:
Type in all cases: functional
Staphylococcus aureus [1] = test: Antibacterial activity against Methicillin-resistant Staphylococcus aureus AUMC 261 assessed as bacterial growth inhibition incubated for 24 hrs by broth microdilution analysis
Staphylococcus aureus [2] = test: Antibacterial activity against Methicillin-resistant Staphylococcus aureus […] assessed as reduction in microbial growth incubated for 18 to 24 hrs by broth micro-dilution method; settings: time 18-24 hrs
Escherichia coli [3] = test: Antibacterial activity against Escherichia coli ATCC 25922 assessed as reduction in bacterial growth incubated for 18 to 24 hrs by broth microdilution method; settings: time 18-24 hrs
Staphylococcus aureus [4] = test: Antibacterial activity against methicillin-resistant Staphylococcus aureus assessed as reduction in microbial growth by CLSI based broth microdilution method
Staphylococcus aureus [5] = test: Antibacterial activity against […] Staphylococcus aureus ATCC 29213 assessed as reduction in bacterial growth incubated for 16 to 20 hrs by CLSI based two-fold serial dilution method; settings: time 16-20 hrs
Staphylococcus aureus [6] = test: Antibacterial activity against methicillin-resistant Staphylococcus aureus ATCC 43300 assessed as reduction in bacterial growth by CLSI protocol based broth microdilution method
Staphylococcus aureus [7] = test: Antibacterial activity against methicillin-resistant Staphylococcus aureus ATCC 43300 assessed as bacterial growth inhibition incubated for 24 hrs by broth dilution method
Staphylococcus aureus [8] = test: Antibacterial activity against methicillin-resistant Staphylococcus aureus ATCC 33592 assessed as reduction in microbial growth incubated for 16 to 20 hrs by CLSI based two-fold serial dilution method; settings: time 16-20 hrs
Staphylococcus aureus [9] = test: Antibacterial activity against Methicillin-sensitive Staphylococcus aureus ATCC 25923 assessed as reduction in microbial growth by CLSI based broth microdilution method
Staphylococcus aureus [10] = test: Antibacterial activity against Methicillin-resistant Staphylococcus aureus ATCC 43300 assessed as reduction in bacterial growth measured for 24 hrs by CLSI based broth microdilution method
Staphylococcus aureus [11] = test: Antibacterial activity against Methicillin-sensitive Staphylococcus aureus ATCC 25923 assessed as reduction in bacterial growth incubated for 24 hrs by CLSI based broth microdilution method
Staphylococcus aureus [12] = test: Antibacterial activity against methicillin-resistant Staphylococcus aureus assessed as inhibition of bacterial growth measured after 24 hrs by broth micro-dilution method
Staphylococcus aureus [13] = test: Antibacterial activity against vancomycin-resistant Staphylococcus aureus assessed as bacterial growth inhibition incubated for 18 to 24 hrs by CLSI-based microdilution method; settings: time 18-24 hrs
Escherichia coli [14] = test: Antibiofilm activity against Escherichia coli ATCC 25922 assessed as reduction in biofilm formation at 50 uM incubated for 24 hrs by crystal violet staining based analysis relative to control; parameters: scale not given: the % may be the effect or the level left
Staphylococcus aureus [15] = test: Antibacterial activity against Staphylococcus aureus ATCC 49444 assessed as reduction in microbial growth
Staphylococcus aureus [16] = test: Antibacterial activity against clinical isolate Methicillin resistant Staphylococcus aureus 2658 RCMB assessed as reduction in microbial growth incubated for 16 to 24 hrs by CLSI-based Muller Hinton broth based microdilution method; settings: time 16-24 hrs
Enterococcus faecium = test: Antimicrobial activity against Vancomycin-resistant Enterococcus faecium assessed as reduction in bacterial viability incubated for 18 hrs by CLSI protocol based Muller Hinton broth based dilution assay
Staphylococcus aureus [17] = test: Antimicrobial activity against […] Staphylococcus aureus ATCC 29213 assessed as reduction in bacterial viability incubated for 18 hrs by CLSI protocol based Muller Hinton broth based dilution assay
Staphylococcus aureus [18] = test: Antibacterial activity against Methicillin-resistant Staphylococcus aureus assessed as reduction of microbial growth by Muller Hinton broth based dilution assay
Staphylococcus aureus [19] = test: Antibacterial activity against Methicillin-sensitive Staphylococcus aureus ATCC 43300 assessed as reduction in microbial growth by CLSI based broth microdilution method
Escherichia coli [20] = test: Antibacterial activity against Escherichia coli ATCC 35210 assessed as reduction in bacterial growth measured for 24 hrs by broth micro-dilution method
Escherichia coli [21] = test: Antibacterial activity against Escherichia coli ATCC 25922 assessed as reduction in bacterial growth by broth microdilution method
Staphylococcus aureus [22] = test: Antibacterial activity against Methicillin-resistant Staphylococcus aureus […] assessed as reduction in microbial growth
Staphylococcus aureus [23] = test: Antibacterial activity against methicillin-resistant Staphylococcus aureus ATCC 33592 assessed as reduction in bacterial growth
Staphylococcus aureus [24] = test: Antibacterial activity against Methicillin-resistant Staphylococcus aureus ATCC 43300 clinical isolate assessed as reduction in microbial growth incubated for 16 to 20 hrs by CLSI based two-fold serial dilution method; settings: time 16-20 hrs
Staphylococcus aureus [25] = test: Antibacterial activity against […] Staphylococcus aureus ATCC 6538 assessed as bacterial growth inhibition incubated for 24 hrs by broth micro-dilution method

O=C(O)c1cn(C2CC2)c2cc(N3CCN(C(=O)CN4C(=O)S/C(=C\c5ccc(F)cc5)C4=O)CC3)c(F)cc2c1=O
MIC (Staphylococcus aureus [1]): 2.88 mg/L (≈ 4.84 µM)

COc1ccc(N/N=C2/S/C(=N\N=C3/C(=O)Nc4ccc(Br)cc43)N=C2C)cc1
MIC (Staphylococcus aureus [2]): 1 mg/L
MIC (Escherichia coli [3]): 1 mg/L (≈ 2.12 µM)

O=C(/C(=C/c1ccccc1Cl)n1cnc2cc(Cl)ccc2c1=O)c1nccs1
MIC (Staphylococcus aureus [4]): 2 mg/L

CCCCCNc1ccc(S(=O)(=O)CC(=O)c2nccs2)cc1
MIC (Staphylococcus aureus [5]): 1 mg/L (≈ 2.84 µM)

O=C1CSC(c2ccc(F)cc2)N1c1nc2ccc(OC(F)(F)F)cc2s1 (stereo unspecified)
MIC (Staphylococcus aureus [6]): 250 mg/L (≈ 603 µM)
MBC (Staphylococcus aureus [7]): 120 mg/L (≈ 290 µM)

CCn1cc(-c2csc(N)n2)c(=O)c2cc(F)c(N3CCN(Cc4ccc(Cl)cc4)CC3)cc21
MIC (Staphylococcus aureus [8]): 8 mg/L

CC(=O)c1sc(-c2cccnc2)nc1C
MIC90 (Staphylococcus aureus [9]): 4 mg/L
MIC50 (Staphylococcus aureus [10]): 4 mg/L (≈ 18.3 µM)
MIC50 (Staphylococcus aureus [11]): 2 mg/L (≈ 9.16 µM)

Cc1cnc(/C=c2\[nH]c(=O)/c(=C\c3ccc(Br)cc3)s2)s1
MIC (Staphylococcus aureus [12]): 40 mg/L (≈ 105 µM)

CCn1cc(-c2csc(N)n2)c(=O)c2cc(F)c(N3CCN(Cc4ccc(Cl)cc4Cl)CC3)cc21
MIC (Staphylococcus aureus [8]): 8 mg/L

O=C1CSC(c2ccc([N+](=O)[O-])cc2)N1c1nc2ccc(OC(F)(F)F)cc2s1 (stereo unspecified)
MIC (Staphylococcus aureus [6]): 250 mg/L (≈ 566 µM)
MBC (Staphylococcus aureus [7]): 120 mg/L (≈ 272 µM)

O=C(O)CCN(c1ccc(Nc2ccccc2)cc1)c1nc(-c2ccc(F)cc2)cs1
MIC (Staphylococcus aureus [13]): 1 mg/L (≈ 2.31 µM)

Cc1ccc(C2SCC(=O)N2c2nc3ccc(OC(F)(F)F)cc3s2)cc1 (stereo unspecified)
MIC (Staphylococcus aureus [6]): 250 mg/L (≈ 609 µM)
MBC (Staphylococcus aureus [7]): 120 mg/L (≈ 292 µM)

Cc1cnc(/C=c2\[nH]c(=O)/c(=C\c3cccc(Br)c3)s2)s1
MIC (Staphylococcus aureus [12]): 40 mg/L (≈ 105 µM)

CCOC1=NC(=N/N=C2\C(=O)Nc3ccc(Br)cc32)/S/C1=N/Nc1ccc([N+](=O)[O-])cc1
MIC (Staphylococcus aureus [2]): 8 mg/L
Activity (Escherichia coli [14]): 90%
MIC (Escherichia coli [3]): 8 mg/L (≈ 15.5 µM)

O=c1c2ccccc2nc(C(c2nccs2)c2nccs2)n1-c1ccc(F)cc1
MIC (Staphylococcus aureus [15]): 32 mg/L

Cc1nc(-c2ccc3ccccc3c2)sc1-c1nnc(NC(=N)N2CCN(C)CC2)o1
MIC (Staphylococcus aureus [16]): 1.9 mg/L

O=C1CSC(c2c(Cl)cccc2Cl)N1c1nc2ccc(OC(F)(F)F)cc2s1 (stereo unspecified)
MIC (Staphylococcus aureus [6]): 250 mg/L (≈ 537 µM)
MBC (Staphylococcus aureus [7]): 120 mg/L (≈ 258 µM)

CCCN(CCC)CCCN1/C(=C/c2c3ccccc3[n+](C)c3c2oc2ccccc23)Sc2ccccc21.[I-]
MIC (Enterococcus faecium): 0.25 mg/L
MIC (Staphylococcus aureus [17]): 0.25 mg/L

O=C(/C(=C/c1ccc(-c2ccc(Cl)cc2Cl)cc1)Oc1ccc2c(CN(CCO)CCO)cc(=O)oc2c1)c1nccs1
MIC (Staphylococcus aureus [18]): 4 mg/L

COc1ccc(/C=C(\Oc2ccc3c(CN(CCO)CCO)cc(=O)oc3c2)C(=O)c2nccs2)cc1
MIC (Staphylococcus aureus [18]): 2 mg/L

CN[C@H](CC(C)C)C(=O)N[C@H]1C(=O)N[C@@H](CC(N)=O)C(=O)N[C@H]2C(=O)N[C@H]3C(=O)N[C@H](C(=O)N[C@H](C(=O)O)c4cc(O)cc(O)c4-c4cc3ccc4O)[C@H](O)c3ccc(c(Cl)c3)Oc3cc2cc(c3O[C@@H]2O[C@H](CO)[C@@H](O)[C@H](O)[C@H]2O[C@H]2C[C@](C)(N)[C@H](O)[C@H](C)O2)Oc2ccc(cc2Cl)[C@H]1O [VANCOMYCIN]
MIC50 (Staphylococcus aureus [10]): 4 mg/L (≈ 2.76 µM)
MIC (Staphylococcus aureus [12]): 1.95 mg/L (≈ 1.35 µM)
MIC90 (Staphylococcus aureus [19]): 16 mg/L

Cc1[nH]c2ccc(Cl)cc2c1-c1csc(N)n1
MIC (Escherichia coli [20]): 60 mg/L (≈ 227 µM)
MIC (Escherichia coli [21]): 60 mg/L (≈ 227 µM)
MIC (Staphylococcus aureus [22]): 230 mg/L
MIC (Staphylococcus aureus [23]): 100 mg/L (≈ 379 µM)

Cc1cc(/C=C2\Sc3ccccc3N2CCCN2CCC(C)CC2)c2ccccc2[n+]1C.[I-]
MIC (Staphylococcus aureus [24]): 2 mg/L

O=C(O)CCN(c1ccc(Nc2ccccc2)cc1)c1nc(-c2ccc(Cl)cc2)cs1
MIC (Staphylococcus aureus [13]): 1 mg/L (≈ 2.22 µM)

CCCCCCNc1ccc(S(=O)(=O)CC(=O)c2nccs2)cc1
MIC (Staphylococcus aureus [5]): 1 mg/L (≈ 2.73 µM)

CCOc1ccc2nc(N3C(=O)CSC3c3ccc(OC)cc3)sc2c1 (stereo unspecified)
MIC (Staphylococcus aureus [25]): 90 mg/L (≈ 233 µM)

— ChEMBL document CHEMBL5518159, “Thiazole-based analogues as potential antibacterial agents against methicillin-resistant Staphylococcus aureus (MRSA) and their SAR elucidation” (Eur J Med Chem, 2023)
